Test results: US8097619B2, “Inhibitors of cyclin-dependent kinases, compositions and uses related thereto” (Agennix USA Inc., priority 2003, dated 2012)

What was measured:
HCT-116 cells [1] = test: Cell cycle analysis with propidium iodide (FACS); format: cell-based, human; details: exposure 24, 48 and 72 hours
Description: The percentage of cells in the G1, S and G2/M phases of the cell cycle was determined by staining DNA with propidium iodide and quantifying the number of cells with a 2N or 4N DNA complement by flow cytometry. Alterations in the distribution of cells across the cell cycle in response to exposure to the Cdk inhibitors was evaluated in this manner.
3 sets of HCT-116 cells (100,000 cells/set) were cultured in the presence of a test compound in T-25 flasks according to Table 1 below. Analysis was performed at 24, 48 and 72 hours. Adherent cells were collected by trypsinization, combined with floating cells in Falcon 12×75 flow cytometric tubes, and harvested by centrifugation. The media was decanted from the cell pellet, 100 μl of PI stain was added and the cells were incubated at 37° C. for 20-25 minutes. The cell count was preferably no greater than 2×10^6-4×10^6/ml. An equal volume (100 μl) of PI salt was then added to the cells, which were then incubated at 4° C. for 1-2 hours. The stained cells were analyzed on a Becton Dickinson FACScan flow cytometer. Samples were protected from light.

HIV-1ROJO = test: Antiviral activity in infected PBMCs (reverse transcriptase in supernatant); format: cell-based
Description: (§1) The activity of the certain compounds of the invention was evaluated in peripheral blood mononuclear cells (PBMCs) infected with the low passage, clinical isolate HIV-1ROJO to generate a measure of the efficacy of these compounds in acutely infected cells. The use of these normal human cells allows an estimate of the therapeutic index of these compounds to be made. Fresh PBMCs from two donors were pooled and stimulated with PHA-P for 48-72 hours. The cells were then cultured in the presence of IL-2 to maintain the cell division initiated by the mitogenic signal. The virus was added at a multiplicity of infection of 0.1. The cells were cultured for 7 days post infection prior to the evaluation of efficacy. Viral replication was measured by the level of reverse transcriptase activity in the supernatant and cytotoxicity was measured with the MTS assay.

[2] = system: peripheral blood mononuclear cells (PBMCs); test: Cytotoxicity in PBMCs (MTS assay); format: cell-based, human; details: read-out: TC50 (μM): 50% cytoxicity (MTS), 7 days
Description: as §1

HCT-116 cells [3] = test: Clonogenic survival assay with HCT-116 cells; format: cell-based, human; details: at 100 nM, time-course (FIG. 3)
Description: This assay was used to determine the concentration of a compound that results irreversible loss of viability after a specified period of exposure. Essentially, cells are exposed to compound for a period of 1, 2 or 5 days, and are then transferred to compound-free growth medium. After continued incubation in the compound-free medium for a number of days, the number of colonies recovered is counted as an estimate of the number of surviving cells.
Media (RPMI-1640, 10% FCS, pen/strep) was pre-warmed to 37° C. in a water bath. Cells were incubated and grown at 37° C., 5% CO2. Cells were recovered by trypsinization from sub-confluent plates and counted using a hemocytometer. 1×10^4 cells were plated in 25 mls of media in a 15 cm tissue culture dish. 14 plates were set up for each test compound, and were incubated overnight at 37° C. The compound was diluted into media at 7 concentrations and the media on the cells was replaced with that containing the test compound. Two plates were set up for each concentration of the compound to be tested, as well as two control plates without compound. […] Colonies were stained with crystal violet solution (0.4% crystal violet, 20% ethanol) for 5 minutes, washed twice with distilled water, and counted.

HCT-116 cells [4] = test: Calcein AM viability assay, HCT-116; format: cell-based; details: Homo sapiens, non-protein adjusted, Table 6
Description: The potency of Cdk inhibitors, as measured by loss of cellular viability, was determined with the Calcein AM assay (Molecular Probes). Calcein AM is a substrate of intracellular esterases, which is cleaved only in viable cells to generate a fluorescent product that can be quantified with a fluorescent plate reader. The fluorescent signal is proportional to the number of viable cells, and thus loss of signal in response to the exposure of cells to Cdk inhibitors correlates with a loss of viability. This assay can distinguish cell cycle arrest, in which cells may still by viable, from loss of viability and is thus well suited for the evaluation of Cdk inhibitors. A compound that is a potent cytotoxic, may cause significant loss of cell viability in such assay.
Cellular IC50's were determined in the human colorectal carcinoma cell line, HCT-116, and the normal human fibroblast, IMR90. Protein adjusted IC50's were also determined in HCT-116.
HCT-116 or IMR90 cells were recovered from sub-confluent plates by trypsinization and 1,000 or 4,000 cells, respectively, were plated in 24-well dishes and incubated overnight at 37° C., 5% CO2. […]
A 5 μM Calcein AM solution was prepared by dissolving a 50 μg aliquot of Calcein (Molecular Probes catalog #C3100) in 50 μl DMSO. […] (protected from light) and the fluorescent signal was read on a fluorescent plate reader (excitation 485/20 and emission 530/25).

Row | Compound | TI: TC50/IC50 (HIV-1ROJO) | further results
1 | CC(C)N1CCN(C(=O)COc2ccc(-c3[nH]nc4c3C(=O)c3c(NC(=O)NN5CCOCC5)cccc3-4)cc2)CC1.Cl [Compound A37] |  | effect on cell cycle distribution (PI FACS) (HCT-116 cells [1]): terminally arrested in G1 and G2, with evidence of apoptosis and endo-reduplication
2 | CC(C)c1nn(-c2c(Cl)cc(Cl)cc2Cl)c2nc(Cc3ccc(CNC(CO)CO)n3C)[nH]c(=O)c12.Cl [Compound C4] | >1 | 
3 | Cc1cn([C@H]2C[C@H](N=[N+]=[N-])[C@@H](CO)O2)c(=O)[nH]c1=O [AZT, reference compound] | >100 | CC50 [2]: > 1 µM
4 | CC(C)c1nn(-c2c(Cl)cccc2Cl)c2nc(Cc3ccc(OCCN4CCOCC4)c(O)c3)[nH]c(=O)c12 [Compound A32] | >10 | 
5 | COCCN1CCN(Cc2ccc(-c3[nH]nc4c3C(=O)c3c(NC(=O)NN5CCOCC5)cccc3-4)cc2)CC1.Cl.Cl [Compound B16] |  | time within which IC50 reached (HCT-116 cells [3]): 30 to 60 min; effect on cell cycle distribution (PI FACS) (HCT-116 cells [1]): Analogous results
6 | O=C(Nc1cccc2c1C(=O)c1c(-c3ccc(CN4CCCC4CO)cc3)n[nH]c1-2)NN1CCOCC1 (centres unmarked) [Compound B6] |  | IC50 (HCT-116 cells [4]): < 0.1 µM
7 | CC(C)c1nn(-c2c(Cl)cccc2Cl)c2nc(Cc3ccc(CN4CCCC4)c(O)c3)[nH]c(=O)c12.Cl [Compound C3] | >10 | 
8 | CC(C)c1nn(-c2c(Cl)cc(Cl)cc2Cl)c2nc(Cc3ccc(OCC(C)(C)O)cc3)[nH]c(=O)c12 [Compound A64] | >10 | 
9 | CC(C)c1nn(-c2c(Cl)cc(Cl)cc2Cl)c2nc(Cc3ccc(OCCO)cc3)[nH]c(=O)c12 [Compound A61] | >10 | 
